pIC50: −log10 of the molar value.
Assays:
human orexin-2 receptor = human orexin-2 receptor (Homo sapiens (Human), UniProt O43614); experiment: In vitro assay: intracellular calcium measurements (FLIPR), antagonistic activity; assay type: cell-based; details: CHO cells expressing human orexin-2 receptor, orexin-A agonist, geometric mean, read-out: IC50 Ox2
Description: (§1) In Vitro Assay: Intracellular Calcium Measurements:
(§2) Chinese hamster ovary (CHO) cells expressing the human orexin-1 receptor and the human orexin-2 receptor, respectively, are grown in culture medium (Ham F-12 with L-Glutamine) containing 300 μg/ml G418, 100 U/ml penicillin, 100 μg/ml streptomycin and 10% heat inactivated fetal calf serum (FCS). The cells are seeded at 20,000 cells/well into 384-well black clear bottom sterile plates (Greiner). The seeded plates are incubated overnight at 37° C. in 5% CO2.
(§3) Human orexin-A as an agonist is prepared as 1 mM stock solution in MeOH: water (1:1), diluted in HBSS containing 0.1% bovine serum albumin (BSA), NaHCO3: 0.375 g/l and 20 mM HEPES for use in the assay at a final concentration of 3 nM.
(§4) Antagonists are prepared as 10 mM stock solution in DMSO, then diluted in 384-well plates using DMSO followed by a transfer of the dilutions into in HBSS containing 0.1% bovine serum albumin (BSA), NaHCO3: 0.375 g/l and 20 mM HEPES. On the day of the assay, 50 μl of staining buffer (HBSS containing 1% FCS, 20 mM HEPES, NaHCO3: 0.375 g/l, 5 mM probenecid (Sigma) and […] of the fluorescent calcium indicator fluo-4 AM (1 mM stock solution in DMSO, containing 10% pluronic) is added to each well. The 384-well cell-plates are incubated for 50 min at 37° C. in 5% CO2 followed by equilibration at RT for 30 min before measurement.
(§5) Within the Fluorescent Imaging Plate Reader (FLIPR Tetra, Molecular Devices), antagonists are added to the plate in a volume of 10 μl/well, incubated for 120 min and finally 10 μl/well of agonist is added. Fluorescence is measured for each well at 1 second intervals, and the height of each fluorescence peak is compared to the height of the fluorescence peak induced by an approximate EC70 (for example 5 nM) of orexin-A with vehicle in place of antagonist. The IC50 value (the concentration of compound needed to inhibit 50% of the agonistic response) is determined and may be normalized using the obtained IC50 value of a on-plate reference compound. Optimized conditions are achieved by adjustment of pipetting speed and cell splitting regime. The calculated IC50 values may fluctuate depending on the daily cellular assay performance. Fluctuations of this kind are known to those skilled in the art. Average IC50 values from several measurements are given as geometric mean values.

human orexin-1 receptor = human orexin-1 receptor (Homo sapiens (Human), UniProt O43613); experiment: as above; assay type: cell-based; details: CHO cells expressing human orexin-1 receptor, orexin-A agonist, geometric mean, read-out: IC50 Ox1
Description: as §1, §2, §3, §4, §5

human orexin-1 receptor, sequence (O43613 whole entry): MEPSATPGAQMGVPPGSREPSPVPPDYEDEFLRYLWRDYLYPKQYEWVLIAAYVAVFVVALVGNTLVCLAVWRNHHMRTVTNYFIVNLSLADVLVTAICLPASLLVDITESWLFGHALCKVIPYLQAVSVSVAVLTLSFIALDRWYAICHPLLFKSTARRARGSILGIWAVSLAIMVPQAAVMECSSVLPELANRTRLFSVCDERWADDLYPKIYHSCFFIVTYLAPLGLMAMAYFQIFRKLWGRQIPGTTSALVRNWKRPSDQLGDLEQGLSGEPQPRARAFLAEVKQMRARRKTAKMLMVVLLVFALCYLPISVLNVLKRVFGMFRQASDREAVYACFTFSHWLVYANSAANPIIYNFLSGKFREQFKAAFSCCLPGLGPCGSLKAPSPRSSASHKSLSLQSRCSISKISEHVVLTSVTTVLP
human orexin-2 receptor, sequence (O43614 whole entry): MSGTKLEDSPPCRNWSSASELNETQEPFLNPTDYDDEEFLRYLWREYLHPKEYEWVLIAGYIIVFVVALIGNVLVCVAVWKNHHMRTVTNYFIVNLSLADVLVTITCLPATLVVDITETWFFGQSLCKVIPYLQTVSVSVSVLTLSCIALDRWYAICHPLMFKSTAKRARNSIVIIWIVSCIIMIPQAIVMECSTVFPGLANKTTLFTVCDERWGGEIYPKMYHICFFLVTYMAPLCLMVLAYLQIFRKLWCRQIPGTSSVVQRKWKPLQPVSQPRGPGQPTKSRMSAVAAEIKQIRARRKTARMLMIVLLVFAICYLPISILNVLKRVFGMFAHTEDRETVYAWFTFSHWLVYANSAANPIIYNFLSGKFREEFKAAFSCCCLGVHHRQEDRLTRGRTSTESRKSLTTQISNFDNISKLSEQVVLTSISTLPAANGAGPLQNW

Row | Structure (SMILES) | pIC50 (human orexin-2 receptor) | pIC50 (human orexin-1 receptor)
1 | COc1ccc2nc([C@@H]3CCCN3C(=O)c3cnc(C)nc3-c3ccc(Cl)c(Cl)c3)[nH]c2c1 [Ex. 1.28] | 6.96 | 6.94
2 | COc1ccc2nc([C@@H]3CCCN3C(=O)c3cnc(C)nc3-c3ccc(C)c(C)c3)[nH]c2c1 [Ex. 1.31] | 7.11 | 6.71
3 | COc1ccc2nc([C@@H]3CCCN3C(=O)c3cnc(C)nc3-c3ccccc3)[nH]c2c1 [Ex. 1.32] | 6.86 | 6.46
4 | COc1ccc2nc([C@@H]3CCCN3C(=O)c3cnc(C)nc3-c3ccc(Br)c(Cl)c3)[nH]c2c1 [Ex. 1.33] | 7.32 | 7.12
5 | CSc1ccc2nc([C@@H]3CCCN3C(=O)c3nc(C)sc3-c3ccc(Br)cc3)[nH]c2c1 [Ex. 1.34] | 7.25 | 6.91
6 | CSc1ccc2nc([C@@H]3CCCN3C(=O)c3nc(C4CC4)sc3-c3ccccc3)[nH]c2c1 [Ex. 1.35] | 7.00 | 6.93
7 | CSc1ccc2nc([C@@H]3CCCN3C(=O)c3nc(C)sc3-c3cccc(Cl)c3Cl)[nH]c2c1 [Ex. 1.36] | 7.57 | 6.96
8 | COc1cccc(-c2sc(C)nc2C(=O)N2CCC[C@H]2c2nc3ccc(SC)cc3[nH]2)c1 [Ex. 1.37] | 7.21 | 6.81
9 | CSc1ccc2nc([C@@H]3CCCN3C(=O)c3nc(C)sc3-c3cccc(C(F)(F)F)c3)[nH]c2c1 [Ex. 1.38] | 6.96 | 6.44
10 | CSc1ccc2nc([C@@H]3CCCN3C(=O)c3nc(C)sc3-c3cccc(F)c3)[nH]c2c1 [Ex. 1.39] | 7.14 | 6.80
11 | CSc1ccc2nc([C@@H]3CCCN3C(=O)c3nc(C)sc3-c3ccc(C)cc3)[nH]c2c1 [Ex. 1.40] | 7.64 | 7.13
12 | CSc1ccc2nc([C@@H]3CCCN3C(=O)c3nc(C4CC4)sc3-c3ccc(C)cc3)[nH]c2c1 [Ex. 1.41] | 7.19 | 6.94
13 | CCc1ccc(-c2sc(C)nc2C(=O)N2CCC[C@H]2c2nc3ccc(SC)cc3[nH]2)cc1 [Ex. 1.42] | 7.19 | 6.58
14 | CSc1ccc2nc([C@@H]3CCCN3C(=O)c3nc(C)sc3-c3cccc(Cl)c3)[nH]c2c1 [Ex. 1.43] | 7.24 | 7.01
15 | CSc1ccc2nc([C@@H]3CCCN3C(=O)c3nccnc3-c3cc(C)cc(F)c3)[nH]c2c1 [Ex. 1.45] | 6.96 | 6.30
16 | CSc1ccc2nc([C@@H]3CCCN3C(=O)c3cnc(C)nc3-c3ccc(F)cc3)[nH]c2c1 [Ex. 1.50] | 6.97 | 6.40

Row | Structure (SMILES) | pIC50 (human orexin-2 receptor) | pIC50 (human orexin-1 receptor)
17 | CSc1ccc2nc([C@@H]3CCCN3C(=O)c3cnc(C)nc3-c3cccc(Cl)c3)[nH]c2c1 [Ex. 1.51] | 7.68 | 7.18
18 | CSc1ccc2nc([C@@H]3CCCN3C(=O)c3cncnc3-c3ccc(Cl)c(Cl)c3)[nH]c2c1 [Ex. 1.52] | 6.92 | 6.13
19 | CSc1ccc2nc([C@@H]3CCCN3C(=O)c3cncnc3-c3ccc(Br)c(Cl)c3)[nH]c2c1 [Ex. 1.54] | 7.10 | 6.14
20 | CSc1ccc2nc([C@@H]3CCCN3C(=O)c3cnc(C)nc3-c3ccc(C)c(C)c3)[nH]c2c1 [Ex. 1.55] | 8.00 | 7.46
21 | COc1cccc(-c2nc(C)ncc2C(=O)N2CCC[C@H]2c2nc3ccc(SC)cc3[nH]2)c1 [Ex. 1.56] | 7.06 | 6.60
22 | CSc1ccc2nc([C@@H]3CCCN3C(=O)c3cnc(C)nc3-c3ccccc3)[nH]c2c1 [Ex. 1.57] | 7.66 | 7.12
23 | CSc1ccc2nc([C@@H]3CCCN3C(=O)c3cnc(C)nc3-c3ccc(Br)c(Cl)c3)[nH]c2c1 [Ex. 1.58] | 7.62 | 7.49
24 | CSc1cccc2nc([C@@H]3CCCN3C(=O)c3nc(C)sc3-c3cccc(Cl)c3Cl)[nH]c12 [Ex. 1.62] | 6.71 | 6.89
25 | COc1cccc(-c2sc(C)nc2C(=O)N2CCC[C@H]2c2nc3cccc(SC)c3[nH]2)c1 [Ex. 1.63] | 8.05 | 7.92
26 | CSc1cccc2nc([C@@H]3CCCN3C(=O)c3nc(C)sc3-c3cccc(C(F)(F)F)c3)[nH]c12 [Ex. 1.64] | 7.74 | 7.92
27 | CSc1cccc2nc([C@@H]3CCCN3C(=O)c3nc(C)sc3-c3cccc(F)c3)[nH]c12 [Ex. 1.65] | 6.83 | 7.20
28 | CSc1cccc2nc([C@@H]3CCCN3C(=O)c3nc(C)sc3-c3ccc(C)cc3)[nH]c12 [Ex. 1.66] | 7.33 | 7.70
29 | CCc1ccc(-c2sc(C)nc2C(=O)N2CCC[C@H]2c2nc3cccc(SC)c3[nH]2)cc1 [Ex. 1.69] | 7.51 | 7.43
30 | CSc1cccc2nc([C@@H]3CCCN3C(=O)c3nc(C4CC4)sc3-c3ccc(F)cc3)[nH]c12 [Ex. 1.70] | 7.59 | 7.59
31 | CSc1cccc2nc([C@@H]3CCCN3C(=O)c3nc(C)sc3-c3cc(F)cc(F)c3)[nH]c12 [Ex. 1.71] | 6.79 | 7.02

Continued by rising pIC50 (human orexin-2 receptor), values first:

Row | pIC50 (human orexin-2 receptor) | pIC50 (human orexin-1 receptor) | Structure (SMILES)
32 | 6.55 | 6.87 | CSc1cccc2nc([C@@H]3CCCN3C(=O)c3nccnc3-c3cccc(C(F)(F)F)c3)[nH]c12 [Ex. 1.73]
33 | 6.60 | 7.11 | CSc1ccc2nc([C@@H]3CCCN3C(=O)c3cnc(C)nc3-c3cc(Cl)cc(Cl)c3)[nH]c2c1 [Ex. 1.59]
34 | 6.74 | 6.43 | COc1ccc2nc([C@@H]3CCCN3C(=O)c3cnc(C)nc3-c3cccc(Cl)c3)[nH]c2c1 [Ex. 1.29]
35 | 6.74 | 6.95 | COc1ccc(-c2nccnc2C(=O)N2CCC[C@H]2c2nc3cccc(SC)c3[nH]2)cc1 [Ex. 1.72]
36 | 6.83 | 6.20 | COc1ccc2nc([C@@H]3CCCN3C(=O)c3cncnc3-c3ccc(Br)c(Cl)c3)[nH]c2c1 [Ex. 1.30]
37 | 6.92 | 6.39 | CSc1ccc2nc([C@@H]3CCCN3C(=O)c3nc(C)sc3-c3cc(F)cc(F)c3)[nH]c2c1 [Ex. 1.44]
38 | 7.00 | 7.28 | CSc1cccc2nc([C@@H]3CCCN3C(=O)c3nccnc3-c3cc(C)cc(F)c3)[nH]c12 [Ex. 1.74]
39 | 7.05 | 6.21 | CSc1ccc2nc([C@@H]3CCCN3C(=O)c3cncnc3-c3ccc(C)c(C)c3)[nH]c2c1 [Ex. 1.53]
40 | 7.08 | 6.90 | CSc1cccc2nc([C@@H]3CCCN3C(=O)c3nc(C)sc3-c3ccc(F)c(F)c3)[nH]c12 [Ex. 1.67]
41 | 7.32 | 7.21 | CSc1cccc2nc([C@@H]3CCCN3C(=O)c3nc(C)sc3-c3ccc(Br)cc3)[nH]c12 [Ex. 1.60]
42 | 7.38 | 7.49 | CSc1ccc2nc([C@@H]3CCCN3C(=O)c3cnc(C)nc3-c3ccc(Cl)c(Cl)c3)[nH]c2c1 [Ex. 1.49]
43 | 7.68 | 7.68 | CSc1cccc2nc([C@@H]3CCCN3C(=O)c3nc(C4CC4)sc3-c3ccccc3)[nH]c12 [Ex. 1.61]
44 | 7.89 | 6.89 | CSc1ccc2nc([C@@H]3CCCN3C(=O)c3ccccc3-c3ccc(C)c(C)c3)[nH]c2c1 [Ex. 1.46]
45 | 7.89 | 6.35 | CSc1ccc2nc([C@@H]3CCCN3C(=O)c3ccccc3-n3nccn3)[nH]c2c1 [Ex. 1.47]
46 | 8.05 | 8.30 | CSc1cccc2nc([C@@H]3CCCN3C(=O)c3ccccc3-c3ccc(C)c(C)c3)[nH]c12 [Ex. 1.75]
47 | 8.10 | 8.15 | CSc1cccc2nc([C@@H]3CCCN3C(=O)c3nc(C4CC4)sc3-c3ccc(C)cc3)[nH]c12 [Ex. 1.68]
